In US7378427B2, “Processes for preparing 6-alkyl-5-arylsulfonyl-dihydrophenanthridines” (Wyeth, priority 2004, dated 2008):

Assays:
[1] = system: C57BL/6 mice; experiment: Uterine wet weight increase in ovariectomized C57BL/6 mice; format: in vivo; conditions: EE 0.01 mg/kg/day, test compound 10 mg/kg/day, gavage once daily for 5 weeks, compared to vehicle control
Procedure: Ovariectomized C57BL/6 mice (16-20 g) (Taconic) were separated into groups of 8. After 5-7 days of recuperation, the mice were fed a chow diet or an atherogenic diet (15.75% fat, 1.25% cholesterol and 0.5% sodium cholate) (Purina diet #21539). EE or test compound was administered once daily by gavage in a methylcellulose/tween vehicle (0.1 ml per mouse) for 5 weeks. At the end of the experimental period, the liver was collected and uterine wet weight was recorded.

[2] = system: IL-6; experiment: HAECT-1 IL-6 expression assay (ELISA) in Ad5-wt-ER infected cells (IL-1β induced); format: cell-based, human; conditions: Ad5-wt-ER infected HAECT-1 cells; for IC50: IL-1β, IL-6 ELISA; for IL-6 Efficacy: relative to the maximal inhibition observed with E2
Procedure: (§1) T-175 flasks of 100% confluent HAECT-1 cells (immortalized human aortic endothelial cells) were washed with 8 mL of HBSS (HEPES buffered saline solution) and infected for four hours with 6 mL of a 1:10 dilution of Ad5-wt-hERα virus (an adenovirus transfection vector that mediates CMV promoter driven expression of human ERα) in phenol red free Endothelial Cell Basal medium (Clonetics, San Diego Calif., Catalog #CC-3129) containing 0.25% bovine serum albumin (EBM-BSA). After four hours, the cells were washed with EBM-BSA and incubated overnight in the same medium. Following overnight incubation, the cells were washed with EBM-BSA and infected for 2 hours with 6 mL of a 1:10 dilution of Ad5-3×(NFκB). Luc virus (Adenovirus luciferase expression vector driven by 3 repeats of the MHC NFκb site 5′ to the thymidine kinase promoter) in EBM-BSA. After two hours, the cells were washed and incubated at 34° C. for 1 hour. The cells were then washed, trypsinized, counted and resuspended in 95% FBS/5% dimethylsulfoxide at a concentration of 4×10^6 cells/mL, frozen as 1 or 5 mL aliquots in cryo-vials and stored at −150° C. Control (no ER infection) cells were processed as above without Ad5-wt-hERα virus infection.
ERα infected HAECT-1 cells or control cells were thawed, diluted 42× in warm EBM-BSA, plated into 96-well plates at 0.1 mL/well and incubated for 4 h at 34° C. Test compounds were added to the cells as 2× stocks in EBM-BSA containing 2 ng/mL IL-1β (R&D Systems) and plates were returned to the incubator (34° C.). After 15-20 h, 100 μL aliquots of media were removed from the cells and assayed for IL-6 content using a BioSource human IL-6 ELISA Kit. Cells were subsequently washed with 300 μL of Dulbecco's phosphate buffered saline and lysed in 50 μL of Cell Culture Lysis Reagent (Promega). Luciferase was determined on a Wallac Victor^2 Luminometer (Gaithersburg, Md.) using 10 μL of lysate and mixing with 100 μL of Promega Luciferase Assay reagent. Creatine kinase was determined from the rate of increase in A340 following addition of 100 μL of CK assay reagent (Sigma, cat. No 47-10) to the remainder of the cell lysate.
(§2) For IC50 and EC50 calculations, mean IL-6, luciferase or CK values versus log10 of the compound concentration were fitted to a four parameter logistic equation. The IC50/EC50 value, ‘Hill slope’, upper and lower limits of the curve were iteratively estimated.

[3] = system: NF-κB; experiment: HAECT-1 NF-κB luciferase reporter assay in Ad5-wt-ER infected cells (IL-1β induced); format: cell-based, human; conditions: Ad5-wt-ER infected HAECT-1 cells
Procedure: Control (no ER infection) cells were processed as above without Ad5-wt-hERα virus infection.
Cells were subsequently washed with 300 μL of Dulbecco's phosphate buffered saline and lysed in 50 μL of Cell Culture Lysis Reagent (Promega). Luciferase was determined on a Wallac Victor^2 Luminometer (Gaithersburg, Md.) using 10 μL of lysate and mixing with 100 μL of Promega Luciferase Assay reagent. Creatine kinase was determined from the rate of increase in A340 following addition of 100 μL of CK assay reagent (Sigma, cat. No 47-10) to the remainder of the cell lysate.
as §2

[4] = system: creatine kinase (CK); experiment: HAECT-1 creatine kinase (CK) expression assay in Ad5-wt-ER infected cells; format: cell-based, human; conditions: relative to the maximal stimulation observed with E2; Ad5-wt-ER infected HAECT-1 cells
Procedure: as §1, with “Luc virus (Adenovirus luciferase expression vector driven by 3 repeats of the MHC NFκb site 5′ to the thymidine kinase promoter) in EBM-BSA. After two hours, the cells were washed and incubated at 34° C. for 1 hour.” left out, “Control (no ER infection) cells were processed as above without Ad5-wt-hERα virus infection.” left out
ERα infected HAECT-1 cells or control cells were thawed, diluted 42× in warm EBM-BSA, plated into 96-well plates at 0.1 mL/well and incubated for 4 h at 34° C. […] Luciferase was determined on a Wallac Victor^2 Luminometer (Gaithersburg, Md.) using 10 μL of lysate and mixing with 100 μL of Promega Luciferase Assay reagent. Creatine kinase was determined from the rate of increase in A340 following addition of 100 μL of CK assay reagent (Sigma, cat. No 47-10) to the remainder of the cell lysate. […]

Uterine Wet Weight Increase, Efficacy (%) [1] [%] | Uterine Wet Weight Increase, Fold Increase [1] | IC50 ([2]; Homo sapiens, HAECT1) [nM] | melting point [°C] | IC50 ([3]; Homo sapiens, HAECT1, IL-1β, luciferase reporter) [nM] | IC50 [2] [nM] | Structure (SMILES) | IL-6 Efficacy [2] [%] | NF-κB Efficacy ([3]; relative to the maximal inhibition observed with E2) [%] | CK Efficacy [4] [%]
100 | 5.0 |  |  |  |  | C#C[C@]1(O)CC[C@H]2[C@@H]3CCc4cc(O)ccc4[C@H]3CC[C@@]21C [EE, reference compound] |  |  | 
0 | 0 | 303 | 193 | 59 |  | C[C@H]1c2cc(F)ccc2-c2ccccc2N1S(=O)(=O)c1ccc(O)cc1 [Example 8, 4-[(S)-8-Fluoro-6-methyl-6H-phenanthridine-5-sulfonyl]-phenol] | 118 | 99 | 
 |  |  | 165.5 to 167.3 |  |  | C[C@H]1c2cc(F)ccc2-c2ccccc2N1S(=O)(=O)c1ccc(OS(N)(=O)=O)cc1 [Example 22, 4-{[(6S)-8-Fluoro-6-methylphenanthridin-5(6H)-yl]sulfonyl}phenyl sulfamate] |  |  | 
 |  |  |  |  | 1.7 | C[C@]12CC[C@@H]3c4ccc(O)cc4CC[C@H]3[C@@H]1CC[C@@H]2O [Example E2, 17-β-estradiol, reference compound] | 100 |  | 100
